Measurements: US9890166B2, “Imidazopyrrolidine derivatives and their use in the treatment of disease” (NOVARTIS AG, priority 2013, dated 2018)
pIC50: −log10 of the molar value.

Key:
[1] = target: BRD2 (His-Brd2(60-472)) (Homo sapiens (Human), UniProt P25440); assay: TR-FRET in-vitro binding assay for BRD2; conditions: single determination or n ≧ 2 independent determinations, read-out: Biochemical IC50 BRD2
Procedure, shortened: (§1)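 His-tagged BRD2, BRD3 and BRD4 fragments tested by TR-FRET at 8 compound concentrations, with DMSO stocks at 10 mM. Read on EnVision after 35 min incubation at 30° C.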

[2] = target: CREBBP bromodomain (His-CREBBP(1081-1197)) (Homo sapiens (Human), UniProt Q92793); assay: AlphaScreen in-vitro binding assay for CREBBP; conditions: single determination or n ≧ 2 independent determinations, read-out: Biochemical IC50 CREBBP
CREBBP bromodomain (His-CREBBP(1081-1197)), sequence (Q92793 1081-1197): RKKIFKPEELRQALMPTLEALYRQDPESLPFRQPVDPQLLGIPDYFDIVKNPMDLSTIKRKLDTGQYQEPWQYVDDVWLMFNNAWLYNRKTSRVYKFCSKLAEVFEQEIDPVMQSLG
Procedure, shortened: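 Detection used nickel-chelate acceptor plus streptavidin donor AlphaScreen beads, 1 h room temperature. Percent inhibition fitted by non-linear regression to IC50.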

[3] = tested on: THP-1 cells; assay: Cell growth inhibition assay (CellTiter-Glo), THP-1; conditions: for GI50: Homo sapiens, THP-1, read-out: THP-1 GI50; for THP-1 TGI: THP-1 cells, total growth inhibition, CellTiter-Glo;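 on all read-outs here: viability read as cellular ATP luminescence after 4 days, 3-fold dilution series from 10 µM, DMSO vehicle-treated cells taken as 100%, cell-free medium wells as −100%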
[4] = target: BRD4 (His-Brd4(44-477)) (Homo sapiens (Human), UniProt O60885); assay: TR-FRET in-vitro binding assay for BRD4; conditions: single determination or n ≧ 2 independent determinations, read-out: Biochemical IC50 BRD4
Procedure, shortened: as §1

[5] = tested on: MV-4-11 cells; assay: Cell growth inhibition assay (CellTiter-Glo), MV-4-11; conditions: for GI50: Homo sapiens, MV4-11, read-out: MV-4-11 GI50; for MV-4-11 TGI: MV-4-11 cells, total growth inhibition, CellTiter-Glo;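 on all read-outs here: cellular ATP luminescence after 4 days, 3-fold dilution series from 10 µM top dose, vehicle (0.1% DMSO) set to 100%, cell-free medium set to −100%, day 0 corrected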
[6] = target: BRD3 (His-Brd3(20-477)) (Homo sapiens (Human), UniProt Q15059); assay: TR-FRET in-vitro binding assay for BRD3; conditions: single determination or n ≧ 2 independent determinations, read-out: Biochemical IC50 BRD3
BRD3 (His-Brd3(20-477)), sequence (Q15059 20-477): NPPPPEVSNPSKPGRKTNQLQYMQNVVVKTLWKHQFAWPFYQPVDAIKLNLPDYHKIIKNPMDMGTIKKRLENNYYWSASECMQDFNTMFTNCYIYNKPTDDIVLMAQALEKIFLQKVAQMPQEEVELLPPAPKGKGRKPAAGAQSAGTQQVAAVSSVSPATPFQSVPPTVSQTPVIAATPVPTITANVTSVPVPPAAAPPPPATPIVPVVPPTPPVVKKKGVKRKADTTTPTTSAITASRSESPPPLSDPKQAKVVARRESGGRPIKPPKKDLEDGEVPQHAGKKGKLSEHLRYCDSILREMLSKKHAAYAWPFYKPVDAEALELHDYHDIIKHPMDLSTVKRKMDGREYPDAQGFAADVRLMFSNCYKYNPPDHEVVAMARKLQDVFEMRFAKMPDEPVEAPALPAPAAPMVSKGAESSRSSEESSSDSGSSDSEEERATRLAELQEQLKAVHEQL
Procedure, shortened: as §1

[7] = tested on: K-562 cells; assay: Cell growth inhibition assay (CellTiter-Glo), K-562; conditions: for GI50: Homo sapiens, K562, read-out: K-562 GI50; for K-562 TGI: K-562 cells, total growth inhibition, CellTiter-Glo;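 on all read-outs here: cellular ATP measured by luminescence after 4 days of exposure, 3-fold dilution series from 10 µM, DMSO vehicle-treated cells define 100%, cell-free medium wells −100%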

BRD2 (His-Brd2(60-472)), sequence (P25440 60-472): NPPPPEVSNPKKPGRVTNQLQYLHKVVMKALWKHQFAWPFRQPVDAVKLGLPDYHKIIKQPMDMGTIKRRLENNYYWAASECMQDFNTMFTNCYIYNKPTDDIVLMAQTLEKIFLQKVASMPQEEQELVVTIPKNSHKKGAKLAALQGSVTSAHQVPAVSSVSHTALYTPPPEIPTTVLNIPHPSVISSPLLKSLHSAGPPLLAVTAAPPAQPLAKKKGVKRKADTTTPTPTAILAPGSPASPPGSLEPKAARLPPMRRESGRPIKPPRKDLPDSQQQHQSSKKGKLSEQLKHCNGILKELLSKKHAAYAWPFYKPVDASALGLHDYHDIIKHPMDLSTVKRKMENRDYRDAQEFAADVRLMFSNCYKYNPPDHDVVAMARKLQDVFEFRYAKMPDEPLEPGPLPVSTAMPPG

pIC50 [1] | pIC50 [2] | GI50 [3] [nM] | pIC50 [4] | GI50 [5] [nM] | pIC50 [6] | GI50 [7] [nM] | Compound | THP-1 TGI [3] [nM] | MV-4-11 TGI [5] [nM] | K-562 TGI [7] [nM]
7.46 | 5.08 | 14.9 | 7.82 | 10.3 | 7.89 | 63.6 | COc1ncccc1-c1nc2c(n1C(C)C)C(c1ccc(Cl)cc1)N(c1cc(C)c3nnc(CF)n3c1)C2=O (stereo not drawn) [Example 89, 6-(4-chlorophenyl)-5-(3-(fluoromethyl)-8-methyl-[1,2,4]triazolo[4,3-a]pyridin-6-yl)-1-isopropyl-2-(2-methoxypyridin-3-yl)-5,6-dihydropyrrolo[3,4-d]imidazol-4(1H)-one] | 40.45 | 20.8 | >10000
7.17 | 4.88 | 82.8 | 7.52 | 16.2 | 7.43 | 270 | Cc1cc(N2C(=O)c3nc(C4=CC(C)(C)NC(C)(C)C4)n(C(C)C)c3C2c2ccc(Cl)cc2)cn2c(CF)nnc12 (stereo not drawn) [Example 90, 6-(4-chlorophenyl)-5-(3-(fluoromethyl)-8-methyl-[1,2,4]triazolo[4,3-a]pyridin-6-yl)-1-isopropyl-2-(2,2,6,6-tetramethyl-1,2,3,6-tetrahydropyridin-4-yl)-5,6-dihydropyrrolo[3,4-d]imidazol-4(1H)-one] | 271 | 31.75 | >10000
7.02 | 4.76 | 122 | 7.46 | 27.4 | 7.35 | 353 | Cc1cc(N2C(=O)c3nc(C4=CCCN(C)C4)n(C(C)C)c3C2c2ccc(Cl)cc2)cn2c(CF)nnc12 (stereo not drawn) [Example 91] | 334 | 63.7 | >10000
7.57 | 5.24 | 23.9 | > 7.96 | 15.3 | 7.57 | 110 | Cc1cc(N2C(=O)c3nc(C4=CCOC4)n(C(C)C)c3C2c2ccc(Cl)cc2)cn2c(CF)nnc12 (stereo not drawn) [Example 92, 6-(4-chlorophenyl)-2-(2,5-dihydrofuran-3-yl)-5-(3-(fluoromethyl)-8-methyl-[1,2,4]triazolo[4,3-a]pyridin-6-yl)-1-isopropyl-5,6-dihydropyrrolo[3,4-d]imidazol-4(1H)-one] | 78.4 | 33.65 | >10000
7.55 | 5.54 | 472 | 7.82 | 126 | 7.64 | 3630 | Cc1cc(N2C(=O)c3nc(C4CCN(C)CC4)n(C(C)C)c3C2c2ccc(Cl)cc2)cn2c(C)nnc12 (stereo not drawn) [Example 98, 6-(4-chlorophenyl)-5-(3,8-dimethyl-[1,2,4]triazolo[4,3-a]pyridin-6-yl)-1-isopropyl-2-(1-methylpiperidin-4-yl)-5,6-dihydropyrrolo[3,4-d]imidazol-4(1H)-one] | 2140 | 282 | >10000
7.55 | 5.84 | 11.2 | 7.64 | 4.84 | 7.64 | 41.8 | Cc1cc(N2C(=O)c3nc(C4CC4)n(C(C)C)c3[C@H]2c2ccc(Cl)cc2)cn2c(C)nnc12 [Example 107, (R)-6-(4-chlorophenyl)-2-cyclopropyl-5-(3,8-dimethyl-[1,2,4]triazolo[4,3-a]pyridin-6-yl)-1-isopropyl-5,6-dihydropyrrolo[3,4-d]imidazol-4(1H)-one] | 23.75 | 9.71 | >10000

Continued, compound first:

Compound | pIC50 [1] | pIC50 [2] | GI50 [3] [nM] | pIC50 [4] | GI50 [5] [nM] | pIC50 [6] | GI50 [7] [nM] | THP-1 TGI [3] [nM] | MV-4-11 TGI [5] [nM] | K-562 TGI [7] [nM]
COc1cc(N2C(=O)c3nc(C4CCN(C)CC4)n(C(C)C)c3C2c2ccc(Cl)cc2)cc2c1nnn2C (stereo not drawn) [Example 97] | 7.24 | 4.81 | 148 | 7.63 | 38.4 | 7.45 | 596 | 432 | 90.2 | >10000
Cc1cc(N2C(=O)c3nc(C4=CCOCC4)n(C(C)C)c3C2c2ccc(Cl)cc2)nn2c(C)nnc12 (stereo not drawn) [Example 100, 6-(4-chlorophenyl)-2-(3,6-dihydro-2H-pyran-4-yl)-5-(3,8-dimethyl-[1,2,4]triazolo[4,3-b]pyridazin-6-yl)-1-isopropyl-5,6-dihydropyrrolo[3,4-d]imidazol-4(1H)-one] | 7.20 | < 4.43 | 7.22 | 7.58 | 4.96 | 7.60 | 42.9 | 26.7 | 13.8 | >10000
Cc1cc(N2C(=O)c3nc(C4CCOCC4)n(C(C)C)c3C2c2ccc(Cl)cc2)nn2c(C)nnc12 (stereo not drawn) [Example 101, 6-(4-chlorophenyl)-5-(3,8-dimethyl-[1,2,4]triazolo[4,3-b]pyridazin-6-yl)-1-isopropyl-2-(tetrahydro-2H-pyran-4-yl)-5,6-dihydropyrrolo[3,4-d]imidazol-4(1H)-one] | 7.47 | 4.71 | 3.49 | 7.64 | 1.86 | 7.62 | 15.5 | 11.05 | 4.11 | >10000
Cc1cc(N2C(=O)c3nc(C4CCOCC4)n(C(C)C)c3[C@H]2c2ccc(Cl)cc2)nn2c(C)nnc12 [Example 102, (R)-6-(4-chlorophenyl)-5-(3,8-dimethyl-[1,2,4]triazolo[4,3-b]pyridazin-6-yl)-1-isopropyl-2-(tetrahydro-2H-pyran-4-yl)-5,6-dihydropyrrolo[3,4-d]imidazol-4(1H)-one] | 7.70 | 4.76 | 2.95 | 7.82 | 1.38 | 7.77 | 13.4 | 10.51 | 4.435 | >10000
Cc1cc(N2C(=O)c3nc(C4=CCOCC4)n(C(C)C)c3[C@H]2c2ccc(Cl)cc2)nn2c(C)nnc12 [Example 103, (R)-6-(4-chlorophenyl)-2-(3,6-dihydro-2H-pyran-4-yl)-5-(3,8-dimethyl-[1,2,4]triazolo[4,3-b]pyridazin-6-yl)-1-isopropyl-5,6-dihydropyrrolo[3,4-d]imidazol-4(1H)-one] | > 7.96 | < 4.43 | 3.47 | > 7.96 | 2.09 | > 7.96 | 12.4 | 10.55 | 3.945 | >10000
Cc1cc(N2C(=O)c3nc(C4CCN(CC(C)(C)C)CC4)n(C(C)C)c3C2c2ccc(Cl)cc2)cn2c(C)nnc12 (stereo not drawn) [Example 104, 6-(4-chlorophenyl)-5-(3,8-dimethyl-[1,2,4]triazolo[4,3-a]pyridin-6-yl)-1-isopropyl-2-(1-neopentylpiperidin-4-yl)-5,6-dihydropyrrolo[3,4-d]imidazol-4(1H)-one] | 7.39 | 5.55 | 21.2 | 7.61 | 8.21 | 7.48 | 53.4 | 53.95 | 18.7 | >10000
Cc1cc(N2C(=O)c3ncn(C(C)C)c3C2c2ccc(Cl)cc2)cc2c1nnn2C (stereo not drawn) [Example 106, 6-(4-chlorophenyl)-5-(1,4-dimethyl-1H-benzo[d][1,2,3]triazol-6-yl)-1-isopropyl-5,6-dihydropyrrolo[3,4-d]imidazol-4(1H)-one] | 7.05 | 5.14 | 50.1 | 7.39 | 19.3 | 7.38 | 92.5 | 86.8 | 34.7 | >10000
COc1cc(N2C(=O)c3nc(C4CCOCC4)n(C(C)C)c3[C@H]2c2ccc(Cl)cc2)cc2c1nnn2C [Example 108] | 6.74 | 5.01 | 47.4 | 7.21 | 20.7 | 7.13 | 132 | 113 | 42.95 | >10000
Cc1cc(N2C(=O)c3nc(C)n(C(C)C)c3[C@H]2c2ccc(Cl)cc2)cc2c1nnn2C [Example 109, (R)-6-(4-chlorophenyl)-5-(3,7-dimethyl-3H-benzo[d][1,2,3]triazol-5-yl)-1-isopropyl-2-methyl-5,6-dihydropyrrolo[3,4-d]imidazol-4(1H)-one] | 7.42 | 5.36 | 11.9 | 7.66 | 6.29 | 7.72 | 52 | 35.8 | 15.35 | >10000
